Results from ChEMBL document CHEMBL3244035, “Synthesis and hypoglycemic activity of 4-substituted 3-mercaptopicolinic acids” (J Med Chem, 1977).
Active and inactive are the calls of the source. The rule behind the calls is not given here.

These compounds were tested on Rattus norvegicus (assay: Hypoglycemic activity in 48 hrs fasted rat assessed as reduction in blood glucose at 150 mg/kg, po measured 1 to 4 hrs post challenge).
Type: functional, organism-based
Design: dose 150 mg/kg

Structure (SMILES)	Activity
CSc1ccnc(C(=O)O)c1S	inactive
O=C(O)c1nccc(Oc2ccccc2)c1S	inactive
CCc1ccnc(C(=O)O)c1S	inactive
O=C(O)c1nccc(Cl)c1S	inactive
O=C(O)c1nccc(S)c1S	inactive
Nc1ccnc(C(=O)O)c1S	inactive
COc1ccnc(C(=O)O)c1S	inactive
